Data set [1] can be described thus: Stability in Balb/cCrSlc mouse plasma assessed as parent compound remaining up to 120 mins by HPLC analysis. It is filed as ADME, cell-free. As to conditions: read-out: Stability.
A short description of data set [2]: Acid dissociation constant, pKa of compound at 20 ug/ml at pH 5.6 to 6.8 by micro-scale spectrophotometric method. Format: physicochemical.
Data set [3] can be described thus: Octanol-water partition coefficient, log P of compound at pH 7.4 by reverse phase HPLC analysis. It is filed as physicochemical.
Data set [4] has as its target T1, Prostaglandin G/H synthase 1 (Ovis aries, UniProt P05979).
T1 sequence (P05979 whole entry): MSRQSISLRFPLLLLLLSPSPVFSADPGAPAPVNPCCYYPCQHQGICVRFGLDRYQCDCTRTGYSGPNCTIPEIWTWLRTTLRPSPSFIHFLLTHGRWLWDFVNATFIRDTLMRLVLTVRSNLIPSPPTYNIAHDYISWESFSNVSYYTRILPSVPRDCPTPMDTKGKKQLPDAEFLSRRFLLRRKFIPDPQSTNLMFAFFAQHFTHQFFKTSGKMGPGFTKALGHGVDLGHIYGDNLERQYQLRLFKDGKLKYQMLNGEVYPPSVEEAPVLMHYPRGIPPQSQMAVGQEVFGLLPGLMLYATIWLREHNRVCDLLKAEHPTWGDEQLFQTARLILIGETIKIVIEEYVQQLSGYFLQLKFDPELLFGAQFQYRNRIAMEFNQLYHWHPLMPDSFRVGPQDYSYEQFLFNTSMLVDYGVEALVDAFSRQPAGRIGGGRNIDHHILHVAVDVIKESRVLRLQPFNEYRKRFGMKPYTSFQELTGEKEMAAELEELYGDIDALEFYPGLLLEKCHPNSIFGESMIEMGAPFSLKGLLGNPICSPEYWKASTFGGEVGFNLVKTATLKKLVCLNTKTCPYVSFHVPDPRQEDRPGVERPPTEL
The experiment in a line: Inhibition of heme catalyzed hydroperoxidase activity of ovine COX-1 using arachidonic acid as substrate preincubated for 5 mins followed by substrate addition measured after 5 mins by TMPD oxidation based colorimetric assay.

The target in data set [5] is T2, Prostaglandin G/H synthase 2 (Ovis aries, UniProt P79208).
T2 sequence (P79208 whole entry): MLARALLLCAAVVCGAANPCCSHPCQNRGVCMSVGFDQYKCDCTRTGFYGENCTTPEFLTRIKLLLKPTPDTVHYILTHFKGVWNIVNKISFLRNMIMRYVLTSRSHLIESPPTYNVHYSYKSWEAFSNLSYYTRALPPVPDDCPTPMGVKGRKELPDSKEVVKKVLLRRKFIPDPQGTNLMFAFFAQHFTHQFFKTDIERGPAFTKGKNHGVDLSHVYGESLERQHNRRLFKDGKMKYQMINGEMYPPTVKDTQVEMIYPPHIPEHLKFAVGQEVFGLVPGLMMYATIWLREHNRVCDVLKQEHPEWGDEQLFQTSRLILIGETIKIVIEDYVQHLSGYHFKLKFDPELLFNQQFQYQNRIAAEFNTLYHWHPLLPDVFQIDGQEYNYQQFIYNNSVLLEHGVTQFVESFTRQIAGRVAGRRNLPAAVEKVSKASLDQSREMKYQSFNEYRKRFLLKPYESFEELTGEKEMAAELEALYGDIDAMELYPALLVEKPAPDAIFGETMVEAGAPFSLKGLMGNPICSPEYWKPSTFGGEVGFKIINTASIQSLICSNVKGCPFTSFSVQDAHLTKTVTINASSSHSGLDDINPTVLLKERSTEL
The experiment in a line: Inhibition of heme catalyzed hydroperoxidase activity of ovine COX-2 using arachidonic acid as substrate preincubated for 5 mins followed by substrate addition measured after 5 mins by TMPD oxidation based colorimetric assay.

Data set [6] can be described thus: Apparent permeability from apical to basolateral side in human Caco2 cells at 1 uM after 1 to 2 hrs by LC-MS analysis. It is filed as ADME, cell-based. The settings on record: Caco-2. On the technique in general: Caco-2 monolayers are a common model of the intestinal barrier.
Data set [7] can be described thus: Apparent permeability from basolateral to apical side in human Caco2 cells at 1 uM after 1 to 2 hrs by LC-MS analysis. Format: ADME, cell-based. As to conditions: Caco-2.
A short description of data set [8]: Efflux ratio of permeability from basolateral to apical side over apical to basolateral side in human Caco2 cells at 1 uM after 1 to 2 hrs by LC-MS analysis. It is filed as ADME, cell-based. As to conditions: Caco-2.
Data set [9] in a line: Apparent permeability from apical to basolateral side in human Caco2 cells at 10 uM after 1 to 2 hrs by LC-MS analysis. Format: ADME, cell-based. As to conditions: Caco-2.
The nature of data set [10]: Apparent permeability from basolateral to apical side in human Caco2 cells at 10 uM after 1 to 2 hrs by LC-MS analysis. It is filed as ADME, cell-based. As to conditions: Caco-2.
A short description of data set [11]: Efflux ratio of permeability from basolateral to apical side over apical to basolateral side in human Caco2 cells at 10 uM after 1 to 2 hrs by LC-MS analysis. It is filed as ADME, cell-based. As to conditions: Caco-2.

Structures are written as SMILES.

Regarding `CS(=O)(=O)Nc1ccc([N+](=O)[O-])cc1Oc1ccccc1` [NIMESULIDE], the remaining at 2 h in data set [1] is 98%. Also, the pKa (in general, the pH at which an ionisable group is half protonated) in [2] was 6.57.

In the case of `CS(=O)(=O)Nc1ccc([N+](=O)[O-])cc1Oc1cccc(I)c1`, in [1], the remaining at 2 h was determined as 98.4%. Further, the logP (in general, a log measure of how a compound divides between an organic and an aqueous phase) in data set [3] was found to be 2.72. The same molecule registered a pKa in data set [2] of 6.74. Moreover, the 50% inhibitory concentration (IC50) in [4] and in data set [5] was above 100 µM throughout. Also, the Papp A→B (as a rule, the apparent permeability from the apical to the basolateral side of a cell layer) at 1 µM in [6] came out at 314 nm/s. Also, the Papp B→A (commonly the apparent permeability from the basolateral to the apical side of a cell layer) at 1 µM in data set [7] came out at 264 nm/s. Moreover, the efflux ratio (in general, the permeability from basolateral to apical divided by that in the opposite direction, in the common usage) at 1 µM in [8] was 0.84. The Papp A→B at 10 µM in data set [9] came to 270 nm/s. Also, the basolateral-to-apical permeability (Papp B→A) at 10 µM in data set [10] came out at 180 nm/s. For the same molecule, the efflux ratio at 10 µM in [11] turned out to be 0.67.

Consider `CS(=O)(=O)Nc1ccc([N+](=O)[O-])cc1Oc1ccccc1I`, for which the remaining at 2 h in data set [1] was found to be 95%. Further, in data set [3], the logP was 2.11. This molecule also registered a pKa in [2] of 6.57. For the same molecule, the IC50 in data set [4] and in [5] was above 100 µM throughout. The apparent permeability from apical to basolateral (Papp A→B) at 1 µM in data set [6] turned out to be 301 nm/s. The Papp B→A at 1 µM in data set [7] was found to be 219 nm/s. Also, the efflux ratio at 1 µM in data set [8] stood at 0.72. Moreover, the apparent permeability from apical to basolateral (Papp A→B) at 10 µM in data set [9] came to 338 nm/s. In data set [10], the basolateral-to-apical permeability (Papp B→A) at 10 µM is 264 nm/s. The efflux ratio at 10 µM in data set [11] worked out at 0.78.

Consider `COc1cccc(Oc2cc([N+](=O)[O-])ccc2NS(C)(=O)=O)c1`, for which, in data set [1], the remaining at 2 h is 99.3%. Besides, the pKa in data set [2] worked out at 6.87.

Consider `CS(=O)(=O)Nc1ccc([N+](=O)[O-])cc1Oc1ccc(I)cc1`, for which the remaining at 2 h in data set [1] was 97.5%. Further, the log partition coefficient (logP) in [3] worked out at 2.77. The pKa in data set [2] turned out to be 6.89. Further, the IC50 (in general, the concentration that gives 50% inhibition) in data set [4] was above 100 µM; in data set [5], 0.47 µM. The Papp A→B at 1 µM in data set [6] was found to be 405 nm/s. Further, the Papp B→A at 1 µM in data set [7] was determined as 183 nm/s. The efflux ratio at 1 µM in data set [8] turned out to be 0.45. In addition, the Papp A→B at 10 µM in data set [9] turned out to be 171 nm/s. Also, in [10], the Papp B→A at 10 µM was determined as 134 nm/s. The efflux ratio at 10 µM in data set [11] came to 0.78.

Take `COc1ccc(Oc2cc([N+](=O)[O-])ccc2NS(C)(=O)=O)cc1`: the remaining at 2 h in data set [1] stood at 98.5%. In addition, the pKa in data set [2] came to 7.01.

As for `COc1ccccc1Oc1cc([N+](=O)[O-])ccc1NS(C)(=O)=O`, in data set [1], the remaining at 2 h turned out to be 97.6%. Besides, the pKa in data set [2] worked out at 7.07.

The record behind these values is ChEMBL document CHEMBL3817846, “Isomeric iodinated analogs of nimesulide: Synthesis, physicochemical characterization, cyclooxygenase-2 inhibitory activity, and transport across Caco-2 cells” (Bioorg Med Chem, 2016).
